This is an account of results in patent US9351974B2, “Substituted pteridinones for the treatment of cancer” (OSI Pharmaceuticals, LLC, priority 2011, dated 2016).

The target of the assay is T1, His-tagged full-length RSK2 (RPS6KA3) (Homo sapiens, UniProt P51812).
T1 construct: His-tagged full-length RSK2 (RPS6KA3, Invitrogen PV3323); His; purchased Invitrogen PV3323
T1 sequence (P51812 whole entry): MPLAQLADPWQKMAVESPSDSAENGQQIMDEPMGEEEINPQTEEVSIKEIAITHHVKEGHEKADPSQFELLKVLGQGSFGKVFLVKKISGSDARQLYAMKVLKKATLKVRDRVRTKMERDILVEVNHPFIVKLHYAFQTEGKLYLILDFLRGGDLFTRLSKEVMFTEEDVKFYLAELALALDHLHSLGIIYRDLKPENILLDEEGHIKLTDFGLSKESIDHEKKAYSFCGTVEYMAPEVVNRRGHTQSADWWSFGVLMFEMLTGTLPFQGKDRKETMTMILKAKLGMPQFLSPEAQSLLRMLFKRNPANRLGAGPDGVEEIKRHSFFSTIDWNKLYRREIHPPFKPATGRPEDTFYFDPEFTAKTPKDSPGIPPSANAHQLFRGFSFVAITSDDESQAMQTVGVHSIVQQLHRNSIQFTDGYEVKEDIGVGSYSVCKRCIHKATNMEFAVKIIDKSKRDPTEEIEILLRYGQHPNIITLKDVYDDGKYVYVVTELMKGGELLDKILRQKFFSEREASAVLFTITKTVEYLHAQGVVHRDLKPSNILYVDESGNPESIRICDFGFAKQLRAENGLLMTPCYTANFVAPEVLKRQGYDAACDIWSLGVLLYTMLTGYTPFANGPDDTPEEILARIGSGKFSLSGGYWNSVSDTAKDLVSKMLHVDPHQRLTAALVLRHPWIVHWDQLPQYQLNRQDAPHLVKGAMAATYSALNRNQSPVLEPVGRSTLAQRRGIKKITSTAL
The assay is described as follows: RSK2 Omnia Assay for compound IC50 determination. The assay is classed as biochemical. The note with it: ATP 15 μM, n=2, read-out: Mean RSK2 Biochem IC50. Here is the method: RSK1 & RSK2 Omnia Assay Protocol for Compound IC50 Determination
The Omnia Assay (Invitrogen) has been optimized for His-tagged full length RSK1 (RPS6KA1, Millipore 14-509) and for His-tagged full-length RSK2 (RPS6KA3, Invitrogen PV3323). In this assay system, Omnia ST Peptide 6 (Invitrogen KNZ1061) functions as a substrate for RSK1 or RSK2. Phosphorylation of this SOX-containing peptide results in an increase in fluorescence at 485 nm upon excitation at 360 nm.
Assays are carried out in 384-well OptiPlates (Perkin Elmer 6007290) in a total volume of 20 μL containing RSK1 ([…]) or RSK2 ([…]), Omnia ST Peptide 6 (5 μM), ATP (15 μM, Km=16.3 μM), and test compound (variable) in RSK assay buffer (50 mM HEPES, pH 7.5, 10 mM MgCl2, 0.01% Tween-20, 1% glycerol, 1 mM DTT, 1 mM EGTA, 0.01% BSA) with 1% DMSO.
IC50s for test compounds are typically determined using an 11-point three-fold serial dilution with a final assay concentration ranging either from 170 μM to […] or from 17 μM to […]. All compound concentrations are assayed in duplicate. Initial compound dilutions are prepared at 100× concentration in 100% DMSO from a 10 mM stock solution. Compounds are further diluted 1:25 in assay buffer resulting in a 4× concentrated solution.
To run the assay 5 μL of the above 4× concentrated compound solution (or 4% DMSO for positive controls) is added to the assay plate followed by 5 μL of a solution containing peptide (20 μM) and ATP (60 μM) in assay buffer. The reaction is initiated by the addition of 10 μL of RSK1 ([…]) or RSK2 ([…]) in assay buffer, or assay buffer alone for negative controls. The increase in fluorescence due to peptide phosphorylation is monitored continuously as a function of time using a Spectramax M5 plate reader (Molecular Devices) equipped with SoftMax Pro software.
The slopes from the linear portion of progress curves are used to determine IC50 values by non-linear curve-fitting to a four-parameter equation using GraphPad Prism (GraphPad Software, Inc.) or XLFit (IDBS). IC50's are determined in duplicate (n=2) and Ki values are calculated from IC50 values using the Cheng-Prusoff equation assuming a competitive mode of inhibition.
In the case of `Cc1cccc(N2C(=O)[C@@H](C)N(C3CCCCC3)c3nc(Nc4ccc5[nH]ncc5c4)ncc32)c1` [Example 30, (7R)-8-cyclohexyl-2-(1H-indazol-5-ylamino)-7-methyl-5-(3-methylphenyl)-7,8-dihydropteridin-6(5H)-one], the IC50 was at most 100 nM. As for `C[C@@H]1C(=O)N(c2cccc(Cl)c2)c2cnc(Nc3ccc4[nH]ncc4c3)nc2N1C1CCCCC1` [Example 31, (7R)-5-(3-chlorophenyl)-8-cyclohexyl-2-(1H-indazol-5-ylamino)-7-methyl-7,8-dihydropteridin-6(5H)-one], the IC50 is at most 100 nM. For `C[C@@H]1C(=O)N(c2cccc(C(=O)N(C)C)c2)c2cnc(Nc3ccc4[nH]ncc4c3)nc2N1C1CCCCC1` [Example 32, 3-[(7R)-8-cyclohexyl-2-(1H-indazol-5-ylamino)-7-methyl-6-oxo-7,8-dihydropteridin-5(6H)-yl]-N,N-dimethylbenzamide] the value was at most 100 nM.

With `C[C@@H]1C(=O)N(c2ccc(OC(F)(F)F)cc2)c2cnc(Nc3ccc4[nH]ncc4c3)nc2N1C1CCCCC1` [Example 33, (7R)-8-cyclohexyl-2-(1H-indazol-5-ylamino)-7-methyl-5-[4-(trifluoromethoxy)phenyl]-7,8-dihydropteridin-6(5H)-one], the IC50 fell in the range of 100 to 1000 nM. As to `C[C@@H]1C(=O)N(c2cccc(OC(F)(F)F)c2)c2cnc(Nc3ccc4[nH]ncc4c3)nc2N1C1CCCCC1` [Example 34, (7R)-8-cyclohexyl-2-(1H-indazol-5-ylamino)-7-methyl-5-[3-(trifluoromethoxy)phenyl]-7,8-dihydropteridin-6(5H)-one], the IC50 is at most 100 nM. With `C[C@@H]1C(=O)N(c2ccc(C(F)(F)F)cc2)c2cnc(Nc3ccc4[nH]ncc4c3)nc2N1C1CCCCC1` [Example 35, (7R)-8-cyclohexyl-2-(1H-indazol-5-ylamino)-7-methyl-5-[4-(trifluoromethyl)phenyl]-7,8-dihydropteridin-6(5H)-one], the IC50 was at most 100 nM. As to `C[C@@H]1C(=O)N(c2cccc(C(F)(F)F)c2)c2cnc(Nc3ccc4[nH]ncc4c3)nc2N1C1CCCCC1` [Example 36, (7R)-8-cyclohexyl-2-(1H-indazol-5-ylamino)-7-methyl-5-[3-(trifluoromethyl)phenyl]-7,8-dihydropteridin-6(5H)-one], the IC50 was at most 100 nM. For `CNS(=O)(=O)c1ccc(N2C(=O)[C@@H](C)N(C3CCCCC3)c3nc(Nc4ccc5[nH]ncc5c4)ncc32)cc1` [Example 37, 4-[(7R)-8-cyclohexyl-2-(1H-indazol-5-ylamino)-7-methyl-6-oxo-7,8-dihydropteridin-5(6H)-yl]-N-methylbenzenesulfonamide], the IC50 was at most 100 nM. As for `COc1cc(N2C(=O)[C@@H](C)N(C3CCCCC3)c3nc(Nc4ccc5[nH]ncc5c4)ncc32)cc(OC)c1OC` [Example 38, (7R)-8-cyclohexyl-2-(1H-indazol-5-ylamino)-7-methyl-5-(3,4,5-trimethoxyphenyl)-7,8-dihydropteridin-6(5H)-one], the IC50 was at most 100 nM. On to `C[C@@H]1C(=O)N(c2ccc3c(c2)OCO3)c2cnc(Nc3ccc4[nH]ncc4c3)nc2N1C1CCCCC1` [Example 39, (7R)-5-(1,3-benzodioxol-5-yl)-8-cyclohexyl-2-(1H-indazol-5-ylamino)-7-methyl-7,8-dihydropteridin-6(5H)-one], for which the IC50 is at most 100 nM.

Take `C[C@@H]1C(=O)N(c2ccc(S(C)(=O)=O)cc2)c2cnc(Nc3ccc4[nH]ncc4c3)nc2N1C1CCCCC1` [Example 40, (7R)-8-cyclohexyl-2-(1H-indazol-5-ylamino)-7-methyl-5-[4-(methylsulfonyl)phenyl]-7,8-dihydropteridin-6(5H)-one]: the IC50 is at most 100 nM. Then `C[C@@H]1C(=O)N(c2ccc(N(C)C)cc2)c2cnc(Nc3ccc4[nH]ncc4c3)nc2N1C1CCCCC1` [Example 41, (7R)-8-cyclohexyl-5-[4-(dimethylamino)phenyl]-2-(1H-indazol-5-ylamino)-7-methyl-7,8-dihydropteridin-6(5H)-one], with at most 100 nM.
